Data taken from US20210181179A1, “DIAGNOSIS AND TREATMENT OF IMMUNOTHERAPY-INDUCED NEUROTOXICITY” (MEMORIAL SLOAN KETTERING CANCER CENTER, priority 2018, published 2021).

What was measured:
[1] = test system: SUP-B15 (B-ALL); test: Net production of TRP metabolites in media samples, SUP-B15; assay type: cell-based
[2] = test system: CCF-STTG1 (astrocytoma); test: Net production of TRP metabolites in media samples, CCF-STTG1; assay type: cell-based, human
Text: (§1) Under physiological conditions in the brain, kynurenine metabolism is driven by microglial cells and astrocytes with preferential production of QUIN and KA respectively. […] This may have been due to T cells producing cytokines and/or intermediate metabolites that are further metabolized to QUIN by the cells. In order to identify specific factors that may lead to tryptophan-kynurenine pathway up-regulation for QUIN production, we tested a panel of cytokine and chemokines implicated in NTX and CRS. […] We initially evaluated the panel of the select factors individually (FIGS. 16 A-B). We selected several cytokines based on their effect on rate-limiting enzymes for QUIN production. These included IFNγ, TNF, […], CXCL10 and […]. These enzymes were selected based on their regulation of key enzymes, KMO and KYNU, which may lead to supraphysiological accumulation of QUIN. These factors were further evaluated, individually or in combination, on astrocytoma, microglial, and primary monocyte-derived macrophages for mRNA levels of kynurenine pathway enzymes and kynurenine metabolites production (FIG. 17).

[3] = test system: CCRF-SB (B-ALL); test: Net production of TRP metabolites in media samples, CCRF-SB; assay type: cell-based
[4] = test system: THP-1 (monocyte); test: Net production of TRP metabolites in media samples, THP-1; assay type: cell-based
[5] = test system: DOAY (medulloblastoma); test: Net production of TRP metabolites in media samples, DOAY; assay type: cell-based
[6] = test system: HCN2 (cortical neuron); test: Net production of TRP metabolites in media samples, HCN2; assay type: cell-based
[7] = test system: KARPAS231 (B-ALL); test: Net production of TRP metabolites in media samples, KARPAS231; assay type: cell-based
[8] = test system: ALL3.1 (B-ALL); test: Net production of TRP metabolites in media samples, ALL3.1; assay type: cell-based
[9] = test system: BV173 (B-ALL); test: Net production of TRP metabolites in media samples, BV173; assay type: cell-based
[10] = test system: RS4; 11 (B-ALL); test: Net production of TRP metabolites in media samples, RS4; 11; assay type: cell-based
[11] = test system: HMC3 (microglia); test: Net production of TRP metabolites in media samples, HMC3; assay type: cell-based, human
Text: as §1

Substance: IFNα
- Net production of TRP metabolites in media samples: 3-HK [1]: 19.38 ± 16.3
- Net production of TRP metabolites in media samples: HAA [1]: 7.32 ± 1.1
- Net production of TRP metabolites in media samples: KA [1]: −10.36 ± 4.4
- Net production of TRP metabolites in media samples: KYN [1]: 292.4 ± 186.6
- Net production of TRP metabolites in media samples: QUIN [1]: −79.6 ± 31.2
- Net production of TRP metabolites in media samples: 3-HK [2]: −13.12 ± 0.55
- Net production of TRP metabolites in media samples: HAA [2]: 10.54 ± 0.8
- Net production of TRP metabolites in media samples: KA [2]: 3.46 ± 1
- Net production of TRP metabolites in media samples: KYN [2]: 4734.38 ± 128
- Net production of TRP metabolites in media samples: QUIN [2]: 15.16 ± 5.5
- Net production of TRP metabolites in media samples: 3-HK [3]: 1.16 ± 6.5
- Net production of TRP metabolites in media samples: HAA [3]: 5.3 ± 0.2
- Net production of TRP metabolites in media samples: KA [3]: −6.78 ± 4^
- Net production of TRP metabolites in media samples: KYN [3]: 93.56 ± 90.1
- Net production of TRP metabolites in media samples: QUIN [3]: −47.16 ± 28.1
- Net production of TRP metabolites in media samples: 3-HK [4]: 0.62 ± 1.4
- Net production of TRP metabolites in media samples: KA [4]: −8.98 ± 2.2
- Net production of TRP metabolites in media samples: KYN [4]: 101.24 ± 17.6
- Net production of TRP metabolites in media samples: QUIN [4]: 12.08 ± 32.1
- Net production of TRP metabolites in media samples: 3-HK [5]: −13.46 ± 0.5
- Net production of TRP metabolites in media samples: HAA [5]: 11.62 ± 0.8
- Net production of TRP metabolites in media samples: KA [5]: 10.28 ± 3.2
- Net production of TRP metabolites in media samples: KYN [5]: 263.2 ± 20^
- Net production of TRP metabolites in media samples: QUIN [5]: 54.5 ± 21.8
- Net production of TRP metabolites in media samples: 3-HK [6]: −4.46 ± 8.2
- Net production of TRP metabolites in media samples: HAA [6]: 5.38 ± 0.4
- Net production of TRP metabolites in media samples: KA [6]: 3.26 ± 6.1
- Net production of TRP metabolites in media samples: KYN [6]: 105.24 ± 37
- Net production of TRP metabolites in media samples: QUIN [6]: 13.26 ± 31.6
- Net production of TRP metabolites in media samples: 3-HK [7]: 5.48 ± 2.1
- Net production of TRP metabolites in media samples: HAA [7]: 30.76 ± 4.2
- Net production of TRP metabolites in media samples: KA [7]: −9.3 ± 5.1
- Net production of TRP metabolites in media samples: KYN [7]: 200.48 ± 77.6
- Net production of TRP metabolites in media samples: QUIN [7]: −42.74 ± 33.3
- Net production of TRP metabolites in media samples: 3-HK [8]: 6.76 ± 6.7
- Net production of TRP metabolites in media samples: KA [8]: −1.1 ± 3.4
- Net production of TRP metabolites in media samples: KYN [8]: 49.4 ± 114.2
- Net production of TRP metabolites in media samples: QUIN [8]: −55.38 ± 21.2
- Net production of TRP metabolites in media samples: 3-HK [9]: 9.94 ± 8.7
- Net production of TRP metabolites in media samples: KA [9]: −3.56 ± 4.1
- Net production of TRP metabolites in media samples: KYN [9]: 257.66 ± 175.9
- Net production of TRP metabolites in media samples: QUIN [9]: 6.36 ± 32.9
- Net production of TRP metabolites in media samples: 3-HK [10]: −1.96 ± 1.6
- Net production of TRP metabolites in media samples: KA [10]: −6.3 ± 2.3
- Net production of TRP metabolites in media samples: KYN [10]: −14 ± 22.7
- Net production of TRP metabolites in media samples: QUIN [10]: 40.46 ± 24^
- Net production of TRP metabolites in media samples: 3-HK [11]: 10.4 ± 18.6
- Net production of TRP metabolites in media samples: HAA [11]: 0.56 ± 1.8
- Net production of TRP metabolites in media samples: KA [11]: 4.48 ± 3.1
- Net production of TRP metabolites in media samples: KYN [11]: 899.26 ± 383^
- Net production of TRP metabolites in media samples: QUIN [11]: 42 ± 18.5

Substance: IFNγ: cytokine
- Net production of TRP metabolites in media samples: 3-HK [1]: 18.5 ± 14.8
- Net production of TRP metabolites in media samples: HAA [1]: 6.92 ± 0.9
- Net production of TRP metabolites in media samples: KA [1]: −7.42 ± 3.2
- Net production of TRP metabolites in media samples: KYN [1]: 299.52 ± 209^
- Net production of TRP metabolites in media samples: QUIN [1]: −70 ± 31
- Net production of TRP metabolites in media samples: 3-HK [2]: −12.24 ± 1.2
- Net production of TRP metabolites in media samples: HAA [2]: 8.88 ± 0.2
- Net production of TRP metabolites in media samples: KA [2]: 8.2 ± 2.9
- Net production of TRP metabolites in media samples: KYN [2]: 12049.08 ± 526
- Net production of TRP metabolites in media samples: QUIN [2]: 1.34 ± 16
- Net production of TRP metabolites in media samples: 3-HK [3]: 1.9 ± 7.3
- Net production of TRP metabolites in media samples: HAA [3]: 5.9 ± 0.5
- Net production of TRP metabolites in media samples: KA [3]: −8.3 ± 5.5
- Net production of TRP metabolites in media samples: KYN [3]: 410.1 ± 79.1
- Net production of TRP metabolites in media samples: QUIN [3]: −53.44 ± 37.8
- Net production of TRP metabolites in media samples: 3-HK [4]: 1.78 ± 1.9
- Net production of TRP metabolites in media samples: KA [4]: −7.14 ± 5.2
- Net production of TRP metabolites in media samples: KYN [4]: 2593.4 ± 153.7
- Net production of TRP metabolites in media samples: QUIN [4]: −26.4 ± 68^
- Net production of TRP metabolites in media samples: 3-HK [5]: −13.38 ± 1.5
- Net production of TRP metabolites in media samples: HAA [5]: 10.66 ± 0.9
- Net production of TRP metabolites in media samples: KA [5]: 11.08 ± 0.9
- Net production of TRP metabolites in media samples: KYN [5]: 6757.9 ± 129.3
- Net production of TRP metabolites in media samples: QUIN [5]: 34.8 ± 7^
- Net production of TRP metabolites in media samples: 3-HK [6]: −4.84 ± 8.3
- Net production of TRP metabolites in media samples: HAA [6]: 6.34 ± 1.1
- Net production of TRP metabolites in media samples: KA [6]: 6.48 ± 4.8
- Net production of TRP metabolites in media samples: KYN [6]: 1597.26 ± 77
- Net production of TRP metabolites in media samples: QUIN [6]: 25.26 ± 27.11
- Net production of TRP metabolites in media samples: 3-HK [7]: 90.74 ± 9.3
- Net production of TRP metabolites in media samples: HAA [7]: 244.46 ± 24.4
- Net production of TRP metabolites in media samples: KA [7]: −9.22 ± 3.8
- Net production of TRP metabolites in media samples: KYN [7]: 1247.28 ± 62.2
- Net production of TRP metabolites in media samples: QUIN [7]: −26.02 ± 27.3
- Net production of TRP metabolites in media samples: 3-HK [8]: 8.76 ± 7.8
- Net production of TRP metabolites in media samples: KA [8]: −3.32 ± 3.4
- Net production of TRP metabolites in media samples: KYN [8]: 55.94 ± 132
- Net production of TRP metabolites in media samples: QUIN [8]: 40.94 ± 140.3
- Net production of TRP metabolites in media samples: 3-HK [9]: 1.06 ± 2.6
- Net production of TRP metabolites in media samples: KA [9]: −4.58 ± 5^
- Net production of TRP metabolites in media samples: KYN [9]: 46.72 ± 51.1
- Net production of TRP metabolites in media samples: QUIN [9]: 6.54 ± 42.2
- Net production of TRP metabolites in media samples: 3-HK [10]: 0.12 ± 1.4
- Net production of TRP metabolites in media samples: KA [10]: −2.8 ± 7.2
- Net production of TRP metabolites in media samples: KYN [10]: 26.58 ± 19.7
- Net production of TRP metabolites in media samples: QUIN [10]: −4.26 ± 37.4
- Net production of TRP metabolites in media samples: 3-HK [11]: 20.8 ± 20.5
- Net production of TRP metabolites in media samples: HAA [11]: 0.76 ± 3.3
- Net production of TRP metabolites in media samples: KA [11]: 48.46 ± 25.8
- Net production of TRP metabolites in media samples: KYN [11]: 45327.9 ± 11654
- Net production of TRP metabolites in media samples: QUIN [11]: 55.88 ± 34^
